12 compounds from PubChem BioAssay (NCI) can be followed below.

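Protocol summary: plate cells (96-well), add compound at 5 concentrations, incubate 48 h, interpolate endpoints linearly. GI50 marks 50% less growth. TGI denotes the concentration required for complete inhibition of growth.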

Test systems include A549 NSCLC; HCT-116 colon; HL-60(TB) leukemia; HS 578T breast; PC-3 prostate; SNB-19 CNS; T-47D breast.
Holding throughout (experiment): inhibition of tumour cell growth, NCI panel, 48 h

For the compound `CN1CCN(Cc2ccc(NC(=O)c3cncc(C#Cc4cncc5nccnc45)c3)cc2C(F)(F)F)CC1`, the GI50 was 4.3 µM with A549 NSCLC; 1.39 µM with HCT-116 colon; 0.342 µM in the test on HL-60(TB) leukemia; 1.13 µM in the test with HS 578T breast; 4.73 µM in the test with PC-3 prostate; 9 µM in the test with SNB-19 CNS. Further, in the test with T-47D breast, the GI50 was 5.61 µM. The TGI amounted to 11.4 µM in the test on A549 NSCLC; 7.35 µM in the test with HCT-116 colon; 4.76 µM in the test with HL-60(TB) leukemia; 7.89 µM in the test with HS 578T breast; 32.2 µM in the test on PC-3 prostate; 18.9 µM in the test with SNB-19 CNS. In addition, the TGI with T-47D breast came out at 14.9 µM.
In the case of `c1cncc(C2Nc3cccc4cccc(c34)N2)c1`, the GI50 in the test with A549 NSCLC is 38.8 µM; in the test on HCT-116 colon, 16.5 µM; with HL-60(TB) leukemia, 36.6 µM; in the test with HS 578T breast, 73.4 µM; in the test on PC-3 prostate it was 18.5 µM; in the test on SNB-19 CNS it was greater than 100 µM. The GI50 in the test with T-47D breast is 2.62 µM. For the same compound, the TGI in the test on A549 NSCLC is greater than 100 µM; in the test on HCT-116 colon, 31.6 µM; in the test with HL-60(TB) leukemia, greater than 100 µM; in the test on HS 578T breast it was greater than 100 µM; in the test on PC-3 prostate it was 46.7 µM; in the test on SNB-19 CNS, greater than 100 µM. Further, the TGI in the test with T-47D breast came to 9.29 µM.
Consider `C/C(=N\NC(=S)N1CCCCCCCCCCCC1)c1ccccn1`, for which the TGI in the test on A549 NSCLC was 1.35 µM; with HCT-116 colon, 1.66 µM; in the test on HL-60(TB) leukemia, greater than 100 µM; in the test on HS 578T breast, 0.942 µM; in the test with PC-3 prostate, 1.1 µM; in the test on SNB-19 CNS it was 2.03 µM. Moreover, the TGI in the test on T-47D breast is 1.25 µM.
In the case of `CCOC(=O)c1c(C)nc2c(c1N)CC(=O)N2CCc1ccccc1`, the GI50 was 4.19 µM with A549 NSCLC; 0.32 µM in the test with HCT-116 colon; 0.374 µM with HL-60(TB) leukemia; 12.4 µM in the test on HS 578T breast; 0.579 µM in the test with PC-3 prostate; 4.52 µM with SNB-19 CNS. In addition, in the test on T-47D breast, the GI50 is 0.962 µM. The TGI in the test on A549 NSCLC came to 36.9 µM; with HCT-116 colon it was 11.2 µM; with HL-60(TB) leukemia it was 13.1 µM; with HS 578T breast, 62.3 µM; in the test with PC-3 prostate it was 24.2 µM; with SNB-19 CNS, 23.3 µM. The same compound registered a TGI with T-47D breast of 22.9 µM.
Regarding `O=C(O)CCc1c2ccc(=O)c(O)c-2oc2c(O)c(O)ccc12`, the TGI in the test with A549 NSCLC was greater than 100 µM; in the test with HCT-116 colon, 59.5 µM; in the test with HL-60(TB) leukemia, greater than 100 µM; with HS 578T breast, greater than 100 µM; with PC-3 prostate, greater than 100 µM; in the test with SNB-19 CNS, greater than 100 µM. The same compound showed a TGI in the test with T-47D breast greater than 100 µM.
As to `CCc1cc2ncc(CN3CCN(c4ccc(C(=O)NC)nc4)CC3)cc2[nH]c1=O`, the GI50 in the test on A549 NSCLC was greater than 100 µM; in the test on HCT-116 colon it was 59.6 µM; in the test with HL-60(TB) leukemia, 32.1 µM; in the test on HS 578T breast it was 64 µM; with PC-3 prostate, 51.7 µM; in the test with SNB-19 CNS it was 99.7 µM. In the test on T-47D breast, the GI50 is 28.2 µM. In addition, the TGI with A549 NSCLC, in the test on HCT-116 colon, in the test with HL-60(TB) leukemia, with HS 578T breast, in the test with PC-3 prostate and in the test on SNB-19 CNS was greater than 100 µM each time. In the test with T-47D breast, this compound yielded a TGI greater than 100 µM.
In the case of `Cc1ccn2c(CCc3nnc4cc(C)ccn34)nnc2c1`, the TGI is greater than 100 µM with A549 NSCLC; greater than 100 µM in the test on HCT-116 colon; 0.623 µM with HL-60(TB) leukemia; greater than 100 µM in the test on HS 578T breast; greater than 100 µM with PC-3 prostate; greater than 100 µM in the test on SNB-19 CNS. The TGI with T-47D breast was greater than 100 µM.
Regarding `O=c1c(Br)cc2c(-c3ccccc3)c3cc(Br)c(O)c(Br)c3oc-2c1Br`, the TGI in the test on A549 NSCLC, in the test with HCT-116 colon, in the test on HL-60(TB) leukemia, in the test with HS 578T breast, in the test with PC-3 prostate and in the test on SNB-19 CNS was greater than 100 µM each time. This compound also came in with a TGI in the test on T-47D breast greater than 100 µM.
`CN1CCN(c2nc(NCCCNc3ccnc4cc(Cl)ccc34)c3ccccc3n2)CC1`: the GI50 with A549 NSCLC is 5.01 µM; with HCT-116 colon, 3.3 µM; with HL-60(TB) leukemia, 2.14 µM; in the test on HS 578T breast, 3.35 µM; in the test with PC-3 prostate, 6.14 µM; in the test with SNB-19 CNS, 3.77 µM. Further, the GI50 in the test with T-47D breast is 2.39 µM. The TGI stood at 19.2 µM in the test with A549 NSCLC; 12.1 µM in the test with HCT-116 colon; 4.39 µM with HL-60(TB) leukemia; 19 µM in the test on HS 578T breast; 20.7 µM in the test with PC-3 prostate; 15.3 µM in the test with SNB-19 CNS. The compound further yielded a TGI in the test with T-47D breast of 6.73 µM.
On to `C=C(CC(=O)O)C(=O)O` (tested in a mixture with another compound), for which the GI50 with A549 NSCLC is greater than 50 mg/L; in the test on HCT-116 colon it was greater than 50 mg/L; in the test on HL-60(TB) leukemia, 8.94 mg/L; with HS 578T breast, greater than 50 mg/L; in the test on PC-3 prostate it was greater than 50 mg/L; with SNB-19 CNS, greater than 50 mg/L. In addition, the GI50 with T-47D breast is greater than 50 mg/L. The TGI in the test on A549 NSCLC was greater than 50 mg/L; with HCT-116 colon it was greater than 50 mg/L; in the test with HL-60(TB) leukemia, 17.2 mg/L; in the test with HS 578T breast, greater than 50 mg/L; in the test on PC-3 prostate, greater than 50 mg/L; in the test on SNB-19 CNS it was greater than 50 mg/L. For the same compound, the TGI in the test with T-47D breast is greater than 50 mg/L.
Take `NC(N)=Nc1nc2ccc([N+](=O)[O-])cc2[nH]1`: the TGI in the test on A549 NSCLC, with HCT-116 colon, with HL-60(TB) leukemia, in the test on HS 578T breast, in the test on PC-3 prostate and in the test on SNB-19 CNS was greater than 100 µM in each case. This compound also returned a TGI in the test with T-47D breast greater than 100 µM.
For the compound `C[C@]12CC[C@H]3[C@@H](C[C@@H]4SC(Nc5ccccc5)=N[C@@]45CC(O)CC[C@]35C)[C@@H]1CCC2O` (stereo partly drawn), the GI50 with A549 NSCLC is 2.41 µM; in the test on HCT-116 colon it was 1.51 µM; with HL-60(TB) leukemia, 2.02 µM; in the test with HS 578T breast it was 2.16 µM; in the test with PC-3 prostate it was 2.37 µM; in the test on SNB-19 CNS, 1.86 µM. The GI50 in the test on T-47D breast was 2.41 µM. The TGI is 6.02 µM in the test with A549 NSCLC; 3.01 µM with HCT-116 colon; 6.87 µM in the test on HL-60(TB) leukemia; 17.2 µM with HS 578T breast; 5.85 µM in the test with PC-3 prostate; 3.77 µM in the test with SNB-19 CNS. The compound further returned a TGI in the test with T-47D breast of 7.59 µM.
